The values that follow come from US7767714B2, “Method of preventing infectious diseases” (Ajinomoto Co., Inc., priority 2002, dated 2010).

Molecules are shown by their SMILES.

The subject of assay [1] is influenza virus A/Aichi/2/68 (H3N2). Kind of assay: Body weight change of mice after influenza virus infection (Example 1). The class given is in vivo, BALB/c female mice. To be noted: mouse; feed with 0.5 wt % L-cystine and/or 0.2 wt % L-theanine for 2 weeks; 10^5 PFU nasally; versus control group on basic feed; FIG. 1. An excerpt:
4-week-old BALB/c female mice in the growth period were preliminarily raised on a solid feed (CRF-1 solid feed, Charles River Japan, inc.) for one week, then preliminarily raised on a powder feed (CRF-1 powder feed, Charles River Japan, inc.) for one week, and when they reached 6 weeks of age, the feed was changed to a feed containing 20 wt % of casein as a protein source (basic feed: composition: α-corn starch 68.3 wt %, casein 20 wt %, mineral mixture 3.5 wt %, vitamin mixture 1 wt %, cellulose powder 2 wt %, corn-oil 5 wt %, choline bitartrate 0.2 wt %), the same feed supplemented with 0.5 wt % of L-cystine as an amino acid, the same feed supplemented with 0.2 wt % of L-theanine as an amino acid, and the same feed supplemented with 0.5 wt % of L-cystine and 0.2 wt % of L-theanine as amino acids (the present invention), and further raised for 2 weeks. Those continuously raised on the basic feed were used as a control group. Ten mice were used for the test for each group.
At two weeks of the amino acid addition feed administration, 10^5 PFU influenza virus A/Aichi/2/68 (H3N2) was nasally inoculated, the body weight of the mice was measured immediately before virus inoculation and day 5 of infection.
Thus, it was clarified that a concurrent use of L-theanine enhanced the action of L-cystine.

The test system of a further assay is Escherichia coli. As to conditions: Chem. Pharm. Bull. 28, 3549-3554, 1980; cited from earlier work.
Another assay has as its system trichomonas. To be noted: extremely high concentration of theanine, in vitro cultivation system; Nature 166, 352, 1950; cited from earlier work.
The subject of the next assay is Staphylococcus aureus. As to conditions: J. Biol. Chem. 171, 387, 1947; Chem. Pharm. Bull. 28, 3549-3554, 1980; cited from earlier work.

As for `N[C@@H](CSSC[C@H](N)C(=O)O)C(=O)O` [L-cystine], in assay [1], the “body weight change at day 5 of influenza virus infection” value is recorded as “suppressed somewhat”.

Consider `CCNC(=O)CC[C@H](N)C(=O)O` [L-theanine], for which the “body weight change at day 5 of influenza virus infection” value in assay [1] is recorded as “body weight decrease of the same level as that of the control group”.

As to `CCNC(=O)CC[C@H](N)C(=O)O` [theanine], in the assay on Escherichia coli, the “growth of Escherichia coli” value is “suppression of growth of Staphylococcus aureus and Escherichia coli”. The trichomonas growth result with trichomonas is listed as “suppression of trichomonas growth”. The “growth of Staphylococcus aureus” value in the assay with Staphylococcus aureus is recorded as “suppression of growth of Staphylococcus aureus”.
